The text below walks through data of US11504336B2, “Extended release pharmaceutical composition of clozapine” (INTAS PHARMACEUTICALS LTD., priority 2016, dated 2022).

For data set [1] the following is noted: cited from earlier work.
The conditions of data set [2]: cited from earlier work. This is another data set of the same source.
A short description of data set [3]: Dissolution of the example 7 composition in media of different pH (Basket/100 RPM/900 ml). It is filed as physicochemical. Conditions: 0.1N HCl vs phosphate buffer pH 6.0 and pH 6.8.

Regarding `CN1CCN(C2=Nc3cc(Cl)ccc3Nc3ccccc32)CC1` [Clozapine, 8-chloro-11-(4-methyl-1-piperazinyl)-5H-dibenzo[b,e][1,4]diazepine], in data set [1] (acidic pH), the “solubility in acidic pH” value is “soluble in acidic pH”. In data set [1] (basic pH), the “solubility in basic pH” value is on record as “practically insoluble in basic pH”. Also, the “solubility in intestinal pH” value in data set [1] (intestinal pH) was “insoluble in intestinal pH”. Further, the solubility in water result in data set [1] (water) is “very slightly soluble in water”. In data set [2] (extensive first pass metabolism), the “dose that reaches systemic circulation unchanged” value is on record as 27-50%. Besides, in data set [2] (wide inter-individual variation), the “plasma half-life, mean value” was 6 ± 1.5 h. In addition, the “solubility behaviour concluded from dissolution data” value in data set [3] is reported as “pH dependent solubility”.
